Measurements as given in US12162890B2 (Novartis AG, priority 2015, dated 2024).

target: HEK293 cells with stable expression of the GRIN1 gene and tetracycline-inducible expression of the GRIN2B gene (NMDA receptor, NR2B) (Homo sapiens, UniProt Q13224); assay: Fluo-8 Ca2+ flux assay: reversal of Ro 25-6981-mediated suppression of the Ca2+ response to co-agonist (glutamate/glycine); format: cell-based; conditions: reversal of the Ro 25-6981 suppression of the Ca2+ response to co-agonist (glutamate/glycine); note: test concentration or dose not given here
Sequence (Q13224 27-1484, other chains not shown): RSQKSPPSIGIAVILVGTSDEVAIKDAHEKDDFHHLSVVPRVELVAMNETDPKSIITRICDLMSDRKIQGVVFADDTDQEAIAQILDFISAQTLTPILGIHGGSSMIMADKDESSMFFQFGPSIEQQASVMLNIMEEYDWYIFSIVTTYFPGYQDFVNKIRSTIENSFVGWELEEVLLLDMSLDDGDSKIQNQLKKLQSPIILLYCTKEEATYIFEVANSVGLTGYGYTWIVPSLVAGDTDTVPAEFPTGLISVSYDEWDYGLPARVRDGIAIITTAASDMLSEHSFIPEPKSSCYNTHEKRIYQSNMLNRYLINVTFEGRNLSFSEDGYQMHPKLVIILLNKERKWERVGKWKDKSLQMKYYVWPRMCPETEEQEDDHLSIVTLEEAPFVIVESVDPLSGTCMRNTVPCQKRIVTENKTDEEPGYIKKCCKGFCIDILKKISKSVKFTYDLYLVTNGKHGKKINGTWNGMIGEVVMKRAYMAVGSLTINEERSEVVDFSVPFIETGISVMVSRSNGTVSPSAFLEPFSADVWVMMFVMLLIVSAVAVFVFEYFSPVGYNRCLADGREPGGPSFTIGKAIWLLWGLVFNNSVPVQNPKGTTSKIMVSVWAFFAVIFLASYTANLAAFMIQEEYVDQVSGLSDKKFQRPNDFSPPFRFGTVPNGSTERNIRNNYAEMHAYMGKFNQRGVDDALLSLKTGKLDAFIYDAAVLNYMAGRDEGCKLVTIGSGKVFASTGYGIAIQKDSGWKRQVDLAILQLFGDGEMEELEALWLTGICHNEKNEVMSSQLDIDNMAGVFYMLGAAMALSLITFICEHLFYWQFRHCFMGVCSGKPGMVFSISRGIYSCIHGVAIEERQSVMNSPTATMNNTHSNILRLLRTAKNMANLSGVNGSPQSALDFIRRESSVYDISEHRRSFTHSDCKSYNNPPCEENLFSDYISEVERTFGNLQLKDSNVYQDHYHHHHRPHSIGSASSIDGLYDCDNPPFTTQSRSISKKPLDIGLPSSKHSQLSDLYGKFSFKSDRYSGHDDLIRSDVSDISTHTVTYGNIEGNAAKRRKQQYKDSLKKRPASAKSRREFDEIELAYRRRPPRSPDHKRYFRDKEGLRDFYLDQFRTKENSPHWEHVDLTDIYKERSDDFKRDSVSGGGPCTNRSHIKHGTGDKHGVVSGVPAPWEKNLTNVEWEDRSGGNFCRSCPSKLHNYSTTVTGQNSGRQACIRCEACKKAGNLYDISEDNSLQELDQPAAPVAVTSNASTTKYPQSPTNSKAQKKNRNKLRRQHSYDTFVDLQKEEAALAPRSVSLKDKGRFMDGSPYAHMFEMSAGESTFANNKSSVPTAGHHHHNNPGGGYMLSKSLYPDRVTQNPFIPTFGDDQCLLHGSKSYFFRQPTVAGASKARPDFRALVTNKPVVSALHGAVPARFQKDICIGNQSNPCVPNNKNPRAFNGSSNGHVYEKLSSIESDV

Response Recovered (%) | SMILES
−6.4% | CC1(NC(=O)OC(C)(C)C)CN(C(=O)Cn2ccc3scc(-c4ccc(F)c(C(F)(F)F)c4)c3c2=O)C1 [Example 77, tert-butyl (1-(2-(3-(4-fluoro-3-(trifluoromethyl)phen-yl)-4-oxothieno[3,2-c]pyridin-5(4H)-yl)acetyl)-3-methylazetidin-3-yl)carbamate]
48% | O=C(Cn1cnc2[nH]cc(-c3ccc(Cl)c(F)c3)c2c1=O)N1CCCC1 [Example 164, 5-(4-chloro-3-fluorophenyl)-3-(2-oxo-2-(pyrrolidin-1-yl)ethyl)-3H-pyrrolo[2,3-d]pyrimidin-4(7H)-one]
13% | O=C(Cn1ccc2scc(-c3ccc(F)c(Cl)c3)c2c1=O)N1CC2C(C1)C2(F)F (stereo not shown) [Example 65, 3-(3-chloro-4-fluorophenyl)-5-(2-(6,6-difluoro-3-azabicyclo[3.1.0]hex-an-3-yl)-2-oxoethyl)thieno[3,2-c]pyridin-4(5H)-one]
28% | O=C(Cn1ccc2scc(-c3cnc(Cl)c(Cl)c3)c2c1=O)N1CC(F)C(F)C1 (stereo not shown) [Example 35, 3-(5,6-dichloropyridin-3-yl)-5-(2-(3,4-difluoropyrrolidin-1-yl)-2-oxoethyl)thieno[3,2-c]pyridin-4(5H)-one]
86% | CCn1cc(-c2ccc(F)c(C(F)(F)F)c2)c2c(=O)n(CC(=O)N3CCC(F)C3)ccc21 (stereo not shown) [Example 239, 1-ethyl-3-(4-fluoro-3-(trifluoromethyl)phenyl)-5-(2-(3-fluoropyrrolidin-1-yl)-2-oxoethyl)-1H-pyrrolo[3,2-c]pyridin-4(5H)-one]
33% | N=C(NO)c1cn(CC(=O)N2CCC(F)C2)c(=O)c2c(-c3ccc(F)c(C(F)(F)F)c3)csc12 (stereo not shown) [Example 110, 3-(4-fluoro-3-(trifluoromethyl)phenyl)-5-(2-(3-fluoropyrrolidin-1-yl)-2-oxoethyl)-N-hydroxy-4-oxo-4,5-dihydrothieno[3,2-c]pyridine-7-carboximidamide]
35% | O=C(Cn1ccc2scc(-c3cnc(Cl)c(Cl)c3)c2c1=O)N1CCC(F)C1 (stereo not shown) [Example 12, 3-(5,6-dichloropyridin-3-yl)-5-(2-(3-fluoropyrrolidin-1-yl)-2-oxoethyl)thieno[3,2-c]pyridin-4(5H)-one]
97% | CCC1(F)CN(C(=O)Cn2ccn3ccc(-c4ccc(F)c(Cl)c4)c3c2=O)C1 [Example 400, 8-(3-chloro-4-fluorophenyl)-2-(2-(3-ethyl-3-fluoroazetidin-1-yl)-2-oxoethyl)pyrrolo[1,2-a]pyrazin-1(2H)-one]
48% | CCn1cc(-c2ccc(F)c(Cl)c2)c2c(=O)n(CC(=O)N3CC(F)(F)C3)cnc21 [Example 163, 5-(3-chloro-4-fluorophenyl)-3-(2-(3,3-difluoroazetidin-1-yl)-2-oxoethyl)-7-ethyl-3H-pyrrolo[2,3-d]pyrimidin-4(7H)-one]
42% | CCn1cc(-c2ccc(F)c(Cl)c2)c2c(=O)n(CC(=O)N3CCCC3)cnc21 [Example 160, 5-(3-chloro-4-fluorophenyl)-7-ethyl-3-(2-oxo-2-(pyrrolidin-1-yl)ethyl)-3H-pyrrolo[2,3-d]pyrimidin-4(7H)-one]
22% | O=C(Cn1cc(-c2ccccc2)c2scc(-c3ccc(F)c(C(F)(F)F)c3)c2c1=O)N1CCCC1 [Example 104, 3-(4-fluoro-3-(trifluoromethyl)phenyl)-5-(2-oxo-2-(pyrrolidin-1-yl)ethyl)-7-phenylthieno[3,2-c]pyridin-4(5H)-one]
104% | O=C(Cn1ccc2scc(-c3ccc(Cl)c(Cl)c3)c2c1=O)N1CC[C@@H](F)C1 [Example 29, (R)-3-(3,4-dichlorophenyl)-5-(2-(3-fluoropyrrolidin-1-yl)-2-oxoethyl)thieno[3,2-c]pyridin-4(5H)-one]
18% | CC(C)(C)OC(=O)N1CCC12CN(C(=O)Cn1ccc3scc(-c4ccc(F)c(Cl)c4)c3c1=O)C2 [Example 79, tert-butyl 6-(2-(3-(3-chloro-4-fluorophenyl)-4-oxothieno[3,2-c]pyridin-5(4H)-yl)acetyl)-1,6-diazaspiro[3.3]heptane-1-carboxylate]
1% | O=C(Cn1cnc2csc(-c3ccc(Cl)cc3)c2c1=O)N1CCC(F)(F)CC1 [Example 353, 5-(4-chlorophenyl)-3-(2-(4,4-difluoropiperidin-1-yl)-2-oxoethyl)thieno[3,4-d]pyrimidin-4(3H)one]
−4.1% | CCC1(F)CN(C(=O)Cn2ccc3scc(-c4cnc(Cl)nc4)c3c2=O)C1 [Example 141, 3-(2-chloropyrimidin-5-yl)-5-(2-(3-ethyl-3-fluoroazetidin-1-yl)-2-oxoethyl)thieno[3,2-c]pyridin-4(5H)-one]
43% | O=C(Cn1ccn2ccc(-c3ccc(F)c(Cl)c3)c2c1=O)N1CC(F)(C2CC2)C1 [Example 398, 8-(3-chloro-4-fluorophenyl)-2-(2-(3-cyclopropyl-3-fluoroazetidin-1-yl)-2-oxoethyl)pyrrolo[1,2-a]pyrazin-1(2H)-one]
64% | O=C(Cn1ccc2scc(-c3cnc(Cl)c(Cl)c3)c2c1=O)N1CC(F)(C2CC2)C1 [Example 70, 5-(2-(3-cyclopropyl-3-fluoroazetidin-1-yl)-2-oxoethyl)-3-(5,6-dichloropyridin-3-yl)thieno[3,2-c]pyridin-4(5H)-one]
29% | CCC1(F)CN(C(=O)Cn2cc(C)n3ccc(-c4cnc(Cl)c(Cl)c4)c3c2=O)C1 [Example 422, 8-(5,6-dichloropyridin-3-yl)-2-(2-(3-ethyl-3-fluoroazetidin-1-yl)-2-oxoethyl)-4-methylpyrrolo[1,2-a]pyrazin-1(2H)-one]
110% | Cc1cn(CC(=O)N2CC(C)(F)C2)c(=O)c2c(-c3ccc(F)c(Cl)c3)ccn12 [Example 416, 8-(3-chloro-4-fluorophenyl)-2-(2-(3-fluoro-3-methylazetidin-1-yl)-2-oxoethyl)-4-methylpyrrolo[1,2-a]pyrazin-1(2H)-one]
52% | Cc1cn(CC(=O)N2CCC(F)C2)c(=O)c2c(-c3ccc(F)c(Cl)c3)cc(Br)n12 (stereo not shown) [Example 415, 6-bromo-8-(3-chloro-4-fluorophenyl)-2-(2-(3-fluoropyrrolidin-1-yl)-2-oxoethyl)-4-methylpyrrolo[1,2-a]pyrazin-1(2H)-one]
42% | CCOCc1cn(CC(=O)N2CCC(F)C2)c(=O)c2c(-c3ccc(F)c(Cl)c3)csc12 (stereo not shown) [Example 130, 3-(3-chloro-4-fluorophenyl)-7-(ethoxymethyl)-5-(2-(3-fluoropyrrolidin-1-yl)-2-oxoethyl)thieno[3,2-c]pyridin-4(5H)-one]
72% | O=C(Cn1ccn2c(Br)cc(-c3ccc(F)c(C(F)(F)F)c3)c2c1=O)N1CCC(F)C1 (stereo not shown) [Example 423, 6-bromo-8-(4-fluoro-3-(trifluoromethyl)phenyl)-2-(2-(3-fluoropyrrolidin-1-yl)-2-oxoethyl)pyrrolo[1,2-a]pyrazin-1(2H)-one]
89% | O=C(Cn1cc(CN2CCCC2)c2scc(-c3ccc(F)c(C(F)(F)F)c3)c2c1=O)N1CCC(F)C1 (stereo not shown) [Example 112, 3-(4-fluoro-3-(trifluoromethyl)phenyl)-5-(2-(3-fluoropyrrolidin-1-yl)-2-oxoethyl)-7-(pyrrolidin-1-ylmethyl)thieno[3,2-c]pyridin-4(5H)-one]
46% | CC1(F)CN(C(=O)Cn2ccn3c(C4CC4)nc(-c4cnc(F)c(Cl)c4)c3c2=O)C1 [Example 441, 1-(5-chloro-6-fluoropyridin-3-yl)-3-cyclopropyl-7-(2-(3-fluoro-3-methylazetidin-1-yl)-2-oxoethyl)imidazo[1,5-a]pyrazin-8(7H)-one]
120% | O=C(Cn1ccn2c(C3CC3)nc(-c3ccc(F)c(Cl)c3)c2c1=O)N1CC(F)(CF)C1 [Example 439, 1-(3-chloro-4-fluorophenyl)-3-cyclopropyl-7-(2-(3-fluoro-3-(fluoromethyl)azetidin-1-yl)-2-oxoethyl)imidazo[1,5-a]pyrazin-8(7H)-one]
139% | O=C(Cn1ccc2scc(-c3ccc(Cl)c(C(F)(F)F)c3)c2c1=O)N1CC(F)(F)C1 [Example 5, 3-(4-chloro-3-(trifluoromethyl)phenyl)-5-(2-(3,3-difluoroazetidin-1-yl)-2-oxoethyl)thieno[3,2-c]pyridin-4(5H)-one]
70% | O=C(Cn1ccc2[nH]cc(-c3ccc(Cl)c(Cl)c3)c2c1=O)N1CCCC1 [Example 217, 3-(3,4-dichlorophenyl)-5-(2-oxo-2-(pyrrolidin-1-yl)ethyl)-1H-pyrrolo[3,2-c]pyridin-4(5H)-one]
130% | O=C(Cn1cc(/C=N/O)c2scc(-c3ccc(F)c(C(F)(F)F)c3)c2c1=O)N1CCC(F)C1 (stereo not shown) [Example 134, (E)-3-(4-fluoro-3-(trifluoromethyl)phenyl)-5-(2-(3-fluoropyrrolidin-1-yl)-2-oxoethyl)-4-oxo-4,5-dihydrothieno[3,2-c]pyridine-7-carbaldehyde oxime]
27% | Cn1cc(-n2cc(-c3ccc(F)c(Cl)c3)c3c(=O)n(CC(=O)N4CCC(F)C4)ccc32)nn1 (stereo not shown) [Example 267, 3-(3-chloro-4-fluorophenyl)-5-(2-(3-fluoropyrrolidin-1-yl)-2-oxoethyl)-1-(1-methyl-1H-1,2,3-triazol-4-yl)-1H-pyrrolo[3,2-c]pyridin-4(5H)-one]
41% | CC1(F)CN(C(=O)Cn2ccc3scc(-c4ccc(F)c(F)c4)c3c2=O)C1 [Example 20, 3-(3,4-difluorophenyl)-5-(2-(3-fluoro-3-methylazetidin-1-yl)-2-oxoethyl)thieno[3,2-c]pyridin-4(5H)-one]

SMILES | Response Recovered (%)
CC1(F)CN(C(=O)Cn2cnn3cnc(-c4ccc(F)c(Cl)c4)c3c2=O)C1 [Example 424, 5-(3-chloro-4-fluorophenyl)-3-(2-(3-fluoro-3-methylazetidin-1-yl)-2-oxoethyl)imidazo[5,1-f][1,2,4]triazin-4(3H)-one] | 0.55%
